Reference: patent US12421209B2, “Compounds” (Hoffmann-La Roche Inc., priority 2021, dated 2025)

Experiments:
NLRP3 [1] = target: T1, NLRP3 (Homo sapiens, UniProt Q96P20); test: THP-1 cells pyroptosis assay (LPS priming, nigericin, resazurin read-out); assay type: cell-based; design: Seed THP-1 cells (25,000 cells/well) containing 1.0 μg/ml LPS; host or cells: THP-1 cells; settings: 1.0 μg/ml LPS, 5 μM nigericin
Procedure: THP-1 cells (ATCC #TIB-202) were grown in RPMI containing L-glutamine (Gibco #11835) supplemented with 1 mM sodium pyruvate (Sigma #S8636) and penicillin (100 units/ml)/streptomycin (0.1 mg/ml) (Sigma #P4333) in 10% Fetal Bovine Serum (FBS) (Sigma #F0804). The cells were routinely passaged and grown to confluency (˜10^6 cells/ml). On the day of the experiment, THP-1 cells were harvested and resuspended into RPMI medium (without FBS). The cells were then counted and viability (>90%) checked by Trypan blue (Sigma #T8154). Appropriate dilutions were made to give a concentration of 625,000 cells/ml. To this diluted cell solution was added LPS (Sigma #L4524) to give a lug/ml Final Assay Concentration (FAC). 40 μl of the final preparation was aliquoted into each well of a 96-well plate. The plate thus prepared was used for compound screening.
The following method step-by-step assay was followed for compound screening. • 1. Seed THP-1 cells (25,000 cells/well) containing 1.0 μg/ml LPS in 40 μl of RPMI medium (without FBS) in 96-well, black walled, clear bottom cell culture plates coated with poly-D-lysine (VWR #734-0317) • 2. Add 5 μl compound (8 points half-log dilution, with 10 μM top dose) or vehicle (DMSO 0.1% FAC) to the appropriate wells • 3. Incubate for 3 hours at 37° C., 5% CO2 • 4. Add 5 μl nigericin (Sigma #N7143) (FAC 5 μM) to all wells • 5. Incubate for 1 hr at 37° C., 5% CO2 • 6. At the end of the incubation period, spin plates at 300×g for 3 mins and remove supernatant • 7. Then add 50 μl of resazurin (Sigma #R7017) (FAC 100 μM resazurin in RPMI medium without FBS) and incubate plates for a further 1-2 hours at 37° C. and 5% CO2 • 8. Plates were read in an Envision reader at Ex 560 nm and Em 590 nm • 9. IC50 data is fitted to a non-linear regression equation (log inhibitor vs response-variable slope 4-parameters)

NLRP3 [2] = target: T1, NLRP3; test: Human whole blood IL-1β release assay (LPS, nigericin, AlphaLisa); assay type: cell-based; design: Human whole blood in Li-heparin tubes was obtained from healthy donors; from tissue; host or cells: human whole blood from healthy donors; settings: 10 μM nigericin
Procedure: For systemic delivery, the ability to inhibit NLRP3 when the compounds are present within the bloodstream is of great importance. For this reason, the NLRP3 inhibitory activity of a number of compounds in human whole blood was investigated in accordance with the following protocol.
Human whole blood in Li-heparin tubes was obtained from healthy donors from a volunteer donor panel. • 1. Plate out 80 μl of whole blood containing lug/ml of LPS in 96-well, clear bottom cell culture plate (Corning #3585) • 2. Add 10 μl compound (8 points half-log dilution with 10 μM top dose) or vehicle (DMSO 0.1% FAC) to the appropriate wells • 3. Incubate for 3 hours at 37° C., 5% CO2 • 4. Add 10 μl nigericin (Sigma #N7143) (10 μM FAC) to all wells • 5. Incubate for 1 hr at 37° C., 5% CO2 • 6. At the end of the incubation period, spin plates at 300×g for 5 mins to pellet cells and remove 20 μl of supernatant and add to 96-well v-bottom plates for IL-1β analysis (note: these plates containing the supernatants can be stored at −80° C. to be analysed at a later date) • 7. IL-1β was measured according to the manufacturer protocol (Perkin Elmer-AlphaLisa IL-1 Kit AL220F-5000) • 8. IC50 data is fitted to a non-linear regression equation (log inhibitor vs response-variable slope 4-parameters)

T1 sequence (Q96P20 whole entry): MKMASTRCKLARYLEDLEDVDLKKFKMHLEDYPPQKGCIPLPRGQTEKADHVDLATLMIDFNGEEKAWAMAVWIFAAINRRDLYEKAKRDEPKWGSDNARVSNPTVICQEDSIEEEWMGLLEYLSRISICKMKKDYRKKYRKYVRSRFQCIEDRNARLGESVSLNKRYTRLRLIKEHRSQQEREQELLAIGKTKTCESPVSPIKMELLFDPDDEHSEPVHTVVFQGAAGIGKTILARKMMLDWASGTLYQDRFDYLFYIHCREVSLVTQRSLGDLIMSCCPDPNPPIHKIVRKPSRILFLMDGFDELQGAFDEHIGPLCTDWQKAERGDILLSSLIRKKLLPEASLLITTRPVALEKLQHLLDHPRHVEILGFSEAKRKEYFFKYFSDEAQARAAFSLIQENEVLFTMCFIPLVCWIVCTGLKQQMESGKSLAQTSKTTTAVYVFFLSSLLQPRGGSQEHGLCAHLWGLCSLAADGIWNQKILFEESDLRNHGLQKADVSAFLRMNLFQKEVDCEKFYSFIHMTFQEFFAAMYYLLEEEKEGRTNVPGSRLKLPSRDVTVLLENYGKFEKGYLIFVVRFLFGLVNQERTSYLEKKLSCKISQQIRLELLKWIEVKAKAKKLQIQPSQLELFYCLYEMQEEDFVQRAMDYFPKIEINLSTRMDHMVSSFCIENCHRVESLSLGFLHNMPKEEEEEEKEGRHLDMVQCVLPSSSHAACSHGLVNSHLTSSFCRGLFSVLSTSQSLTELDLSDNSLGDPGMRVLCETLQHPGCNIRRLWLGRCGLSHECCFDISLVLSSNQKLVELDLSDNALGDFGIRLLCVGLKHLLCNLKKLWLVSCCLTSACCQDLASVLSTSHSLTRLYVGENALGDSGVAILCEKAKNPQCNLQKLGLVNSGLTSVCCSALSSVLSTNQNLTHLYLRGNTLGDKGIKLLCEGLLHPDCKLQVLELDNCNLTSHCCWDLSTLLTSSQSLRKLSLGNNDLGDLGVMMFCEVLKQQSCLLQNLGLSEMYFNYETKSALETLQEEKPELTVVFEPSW

Row | SMILES | IC50 (NLRP3 [1]) [µM] | IC50 (NLRP3 [2]) [µM]
1 | Cc1nc(N[C@H]2CCCN3CCC[C@H]23)nnc1-c1ccc(C(F)(F)F)cc1O (racemic) [Example 26, 2-[5-Methyl-3-[[rac-(8S,8aR)-1,2,3,5,6,7,8,8a-octahydroindolizin-8-yl]amino]-1,2,4-triazin-6-yl]-5-(trifluoromethyl) phenol] | 0.0051 | 
2 | Cc1nc(N[C@@H]2CCCN(C(C)(C)C)C2)nnc1-c1ccc(C(F)(F)F)cc1O (single isomer, unassigned) [Example 10, 2-[3-[[(3R or 3S)-1-tert-Butyl-3-piperidyl]amino]-5-methyl-1,2,4-triazin-6-yl]-5-(trifluoromethyl) phenol] | 0.434 | 
3 | Cc1nc(NC2CCCN(C(C)(C)C)C2)nnc1-c1ccc(C(F)(F)F)cc1O (single isomer, unassigned) [Example 11, 2-[3-[[(3S or 3R)-1-tert-Butyl-3-piperidyl]amino]-5-methyl-1,2,4-triazin-6-yl]-5-(trifluoromethyl) phenol] | 0.0022 | 0.0156
4 | CCN1CCC[C@@H](Nc2ncc(-c3c(C)cc(C(F)(F)F)cc3O)nn2)C1 [Example 1, 2-[3-[[(3R)-1-Ethyl-3-piperidyl]amino]-1,2,4-triazin-6-yl]-3-methyl-5-(trifluoromethyl) phenol; 2,2,2-trifluoroacetic acid] | 0.009 | 0.039
5 | Cc1nc(N[C@H]2C[C@@](C)(O)C2)nnc1-c1ccc(C(F)(F)F)cc1O [Example 3, 2-[3-[(3-Hydroxy-3-methyl-cyclobutyl)amino]-5-methyl-1,2,4-triazin-6-yl]-5-(trifluoromethyl) phenol] | 0.107 | 0.191
6 | CCN1CCC[C@@H](Nc2nnc(-c3ccc(Cl)cc3O)c(C)n2)C1 [Example 5, 5-Chloro-2-[3-[[(3R)-1-ethyl-3-piperidyl]amino]-5-methyl-1,2,4-triazin-6-yl]phenol] | 0.0013 | 0.0038
7 | CCN1CCC[C@@H](Nc2nnc(-c3ccc(F)cc3O)c(C)n2)C1 [Example 6, 2-[3-[[(3R)-1-Ethyl-3-piperidyl]amino]-5-methyl-1,2,4-triazin-6-yl]-5-fluoro-phenol] | 0.0155 | 0.0146
8 | CCN1CCC[C@@H](Nc2nnc(-c3ccc4c(c3O)CC4)c(C)n2)C1 [Example 8, 3-[3-[[(3R)-1-Ethyl-3-piperidyl]amino]-5-methyl-1,2,4-triazin-6-yl]bicyclo[4.2.0]octa-1(6),2,4-trien-2-ol] | 0.0004 | 0.0043
9 | CCN1CCC[C@@H](Nc2nnc(-c3c(O)cc(C(F)(F)F)cc3F)c(C)n2)C1 [Example 9, 2-[3-[[(3R)-1-Ethyl-3-piperidyl]amino]-5-methyl-1,2,4-triazin-6-yl]-3-fluoro-5-(trifluoromethyl) phenol] | 0.0035 | 0.0274
10 | CCN1CCC[C@@H](Nc2nnc(-c3ccc(C#N)cc3O)c(C)n2)C1 [Example 12, 4-[3-[[(3R)-1-Ethyl-3-piperidyl]amino]-5-methyl-1,2,4-triazin-6-yl]-3-hydroxy-benzonitrile] | 0.0205 | 0.0239
11 | Cc1nc(N[C@@H]2C[C@H](F)CN(C)C2)nnc1-c1ccc(C(F)(F)F)cc1O [Example 13, 2-[3-[[(3R,5S)-5-Fluoro-1-methyl-3-piperidyl]amino]-5-methyl-1,2,4-triazin-6-yl]-5-(trifluoromethyl) phenol] | 0.077 | 
12 | Cc1nc(NC2CCCn3ccnc32)nnc1-c1ccc(C(F)(F)F)cc1O (centres unmarked) [Example 14, 2-[5-Methyl-3-(5,6,7,8-tetrahydroimidazo[1,2-a]pyridin-8-ylamino)-1,2,4-triazin-6-yl]-5-(trifluoromethyl) phenol] | 0.35 | 
13 | Cc1nc(N[C@@H]2CCCN(C)C2)nnc1-c1ccc(F)cc1O [Example 15, 5-Fluoro-2-[5-methyl-3-[[(3R)-1-methyl-3-piperidyl]amino]-1,2,4-triazin-6-yl]phenol] | 0.0183 | 0.0151
14 | Cc1nc(N[C@@H]2CCCN(C)C2)nnc1-c1ccc(Cl)cc1O [Example 16, 5-Chloro-2-[5-methyl-3-[[(3R)-1-methyl-3-piperidyl]amino]-1,2,4-triazin-6-yl]phenol] | 0.0015 | 0.0132
15 | Cc1nc(N[C@@H]2CCCNC2)nnc1-c1ccc(C(F)(F)F)cc1O [Example 17, 2-[5-Methyl-3-[[(3R)-3-piperidyl]amino]-1,2,4-triazin-6-yl]-5-(trifluoromethyl) phenol] | 0.0134 | 0.0465
16 | Cc1nc(N[C@@H]2CCCN(C)C2)nnc1-c1ccc(C(F)(F)F)cc1O [Example 18, 2-[5-Methyl-3-[[(3R)-1-methyl-3-piperidyl]amino]-1,2,4-triazin-6-yl]-5-(trifluoromethyl) phenol] | 0.001 | 0.0202
17 | Cc1nc(N[C@@H]2CCCC[C@H]2O)nnc1-c1ccc(C(F)(F)F)cc1O [Example 19, 2-[3-[[(1R,2R)-2-Hydroxycyclohexyl]amino]-5-methyl-1,2,4-triazin-6-yl]-5-(trifluoromethyl) phenol] | 0.0322 | 0.228

Continued, values first:

Row | IC50 (NLRP3 [1]) [µM] | IC50 (NLRP3 [2]) [µM] | SMILES
18 | 0.0209 |  | Cc1nc(N[C@H]2CCCN3CCC[C@@H]23)nnc1-c1ccc(C(F)(F)F)cc1O (racemic) [Example 27, 2-[5-Methyl-3-[[rac-(8S,8aS)-1,2,3,5,6,7,8,8a-octahydroindolizin-8-yl]amino]-1,2,4-triazin-6-yl]-5-(trifluoromethyl) phenol]
19 | 0.0024 | 0.0188 | Cc1nc(NC2CCCN3CCCC23)nnc1-c1ccc(C(F)(F)F)cc1O (single isomer, unassigned) [Example 28]
20 | 0.163 |  | Cc1nc(NC2CCCN3CCCC23)nnc1-c1ccc(C(F)(F)F)cc1O (single isomer, unassigned) [Example 29]
21 | > 1 |  | Cc1nc(NC2CCC3CCCN3C2)nnc1-c1ccc(C(F)(F)F)cc1O (single isomer, unassigned) [Example 31, 2-[3-[[(6S or 6R,8aS or 8aR)-1,2,3,5,6,7,8,8a-octahydroindolizin-6-yl]amino]-5-methyl-1,2,4-triazin-6-yl]-5-(trifluoromethyl) phenol]
22 | 0.0161 | 0.0365 | Cc1nc(NC2CCC3CCCN3C2)nnc1-c1ccc(C(F)(F)F)cc1O (single isomer, unassigned) [Example 32, 2-[3-[[(6R or 6S,8aS or 8aR)-1,2,3,5,6,7,8,8a-octahydroindolizin-6-yl]amino]-5-methyl-1,2,4-triazin-6-yl]-5-(trifluoromethyl) phenol]
23 | 0.0461 | 0.3 | Cc1nc(NC2CCC3CCCN3C2)nnc1-c1ccc(C(F)(F)F)cc1O (single isomer, unassigned) [Example 33, 2-[3-[[(6S or 6R,8aR or 8aS)-1,2,3,5,6,7,8,8a-octahydroindolizin-6-yl]amino]-5-methyl-1,2,4-triazin-6-yl]-5-(trifluoromethyl) phenol]
24 | 0.209 |  | Cc1nc(NC2CCC3CCCN3C2)nnc1-c1ccc(C(F)(F)F)cc1O (single isomer, unassigned) [Example 34, 2-[3-[[(6R or 6S, 8aR or 8aS)-1,2,3,5,6,7,8,8a-octahydroindolizin-6-yl]amino]-5-methyl-1,2,4-triazin-6-yl]-5-(trifluoromethyl) phenol]
25 | 0.111 |  | CCN1CCC[C@@H](Nc2nnc(-c3ccc(C(F)(F)F)cc3O)c(C(F)(F)F)n2)C1 [Example 30, 2-[3-[[(3R)-1-Ethyl-3-piperidyl]amino]-5-(trifluoromethyl)-1,2,4-triazin-6-yl]-5-(trifluoromethyl) phenol; 2,2,2-trifluoroacetic acid]
